Test results as given in US12297182B2, “Compositions comprising an urolithin compound” (Amazentis SA, priority 2015, dated 2025).
One block for each compound: values may come before it.

Legend:
[1] = design: species or system male Sprague-Dawley rats; conditions: rat, in vivo, po
Method: The solutions for gavage were prepared as follows: 35 mg of urolithin A powder was diluted in 7 ml of 15% DMSO, 0.5% methyl cellulose/0.25% Tween 80 in water, resulting in a 5 mg/ml fine suspension. The DMSO was obtained from BDH, methyl cellulose was obtained from Sigma, and Tween 80 was obtained from Sigma-Aldrich.
Blood was collected from the rats by jugular vein cannulation at different time points, and urolithin A was quantified in the plasma to determine its pharmacokinetic profile following oral gavage of Sample #1, Sample #2, and Sample #3. The study was repeated on three rats for each sample. […]

[2] = tested on: 22 month old C57BL/6J old mice; experiment: Treadmill endurance test in old mice fed a high protein diet with or without Urolithin A; type: in vivo; conditions: Urolithin A 50 mg/kg/day in high protein diet, 6 weeks, normalized over basal values, compared to mice receiving only a protein diet; no exercise regimen
From the text: To mimic age related muscle loss in humans, an experimental animal model was setup in old mice. The control diet designed to be used in the experimental study was a high protein diet that would be analogous to a clinically recommended high protein diet in elderly humans at risk of muscle loss. The diet was formulated to improve the performance of old animals that consume them. The high protein diet has a better balance of essential nutrients (amino acids, vitamins and minerals) and is supplemented with 200 gr casein per kg of diet, instead of 140 gr of casein in the regular maintenance diet (Reeves PG, J. Nutr. 1997, 127(5) 838S-841S). Casein proteins are nutritionally complete, highly digestible proteins with high amino scores that contain all amino acids in amounts sufficient to support maintenance of all body proteins. Urolithin A was admixed to the high protein diet at a level of 0.57 g per kg of diet. Both the diets were isocaloric. 22 month old C57BL/6J old mice that would be equivalent to a 65 yr to 75 yr old elderly human were treated with either the high protein diet alone or a high protein diet containing Urolithin A. Both the diets contained in addition to the casein protein, essential nutrient for optimal muscle function such as L-cysteine and vitamins and mineral mix. The level of Urolithin A in the diet results in a dose of 50 mg/kg/day delivered to mice. […]

myotubes = conditions: in vitro; cited from earlier work

fold increase in the Cmax ([1]; male, Sprague-Dawley, 25 mg/kg): 2.16 fold | relative increase in the AUC ([1]; male, Sprague-Dawley, 25 mg/kg): 28% | relative increase in the Cmax ([1]; male, Sprague-Dawley, 25 mg/kg): 116%
SMILES: O=c1oc2cc(O)ccc2c2ccc(O)cc12 [Sample #2, Urolithin A]

relative increase in the AUC ([1]; male, Sprague-Dawley, 25 mg/kg): 26%
SMILES: O=c1oc2cc(O)ccc2c2ccc(O)cc12 [Sample #3, Urolithin A]

bioavailability (in words) [1]: increase in bioavailability
SMILES: O=c1oc2cc(O)ccc2c2ccc(O)cc12 [Urolithin A]
increase in running distance [2]: 42% | increase in running time [2]: 28%

SMILES: O=c1oc2cc(O)ccc2c2ccccc12 [Urolithin B]
effect on mean diameter of myotubes (myotubes): increased
